Measured values reported in patent US4985441A, “Anti-tumor agents” (Imperial Chemical Industries plc, priority 1988, dated 1991).

Assays:
[1] = tested on: human breast, ovarian and liver cancer; conditions: clinical; literature references; cited from earlier work
liver and kidney = conditions: clinical; literature references; cited from earlier work
thymidylate synthetase = target: T1, thymidylate synthetase (Mus musculus, UniProt P07607); experiment: Test (a): in vitro inhibition of thymidylate synthetase (partially purified from L1210 mouse leukaemia cells); type: biochemical; conditions: enzyme partially purified from L1210 mouse leukaemia cells; read-out: IC50 against thymidylate synthetase [Test (a)]
T1 construct: obtained in partially purified form from L1210 mouse leukaemia cells; endogenous in cells; host or cells: L1210 mouse leukaemia cells (enzyme partially purified)
T1 sequence (P07607 whole entry): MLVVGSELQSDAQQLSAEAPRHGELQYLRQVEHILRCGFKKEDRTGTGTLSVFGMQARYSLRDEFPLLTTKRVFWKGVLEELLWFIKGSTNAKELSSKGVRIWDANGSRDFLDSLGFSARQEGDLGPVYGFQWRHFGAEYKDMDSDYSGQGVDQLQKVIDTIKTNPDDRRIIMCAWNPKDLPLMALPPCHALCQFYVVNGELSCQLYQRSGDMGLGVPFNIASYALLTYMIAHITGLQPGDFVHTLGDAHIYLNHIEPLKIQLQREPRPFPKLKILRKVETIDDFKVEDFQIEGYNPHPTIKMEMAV
Excerpt: (a) An in vitro assay which determines the ability of a test compound to inhibit the enzyme thymidylate synthetase. Thymidylate synthetase may be obtained in partially purified form from L1210 mouse leukaemia cells and utilised using the procedures described by Jackman et al. (Cancer Res., 1986, 46, 2810);

L1210 cell line = experiment: Test (b): inhibition of growth of the leukaemia cell line L1210 in cell culture; type: cell-based; conditions: Mus musculus, read-out: IC50 against the L1210 cell line [Test (b)]
Excerpt: Compounds of the CB3717 type are believed to act as anti-tumour agents by inhibiting the enzyme thymidylate synthetase. The anti-tumour activity of CB3717 may be assessed in vitro by determining its inhibitory effect on that enzyme, and in cell cultures by its inhibitory effect on cancer cell lines such as the mouse leukaemia cell lines L1210 and L5178Y TK-/- and the breast cancer cell line MCF-7.
(b) An assay which determines the ability of a test compound to inhibit the growth of the leukaemia cell line L1210 in cell culture. The test is similar to that described in UK Patent Specification No. 2065653B;

SMILES	activity against human breast, ovarian and liver cancer [1]	toxicity in humans (liver and kidney)	IC50 (thymidylate synthetase) [µM]	IC50 (L1210 cell line) [µM]
C#CCN(Cc1ccc2nc(N)[nH]c(=O)c2c1)c1ccc(C(=O)N[C@@H](CCC(=O)O)C(=O)O)cc1 [CB3717]	promising activity against human breast, ovarian and liver cancer	symptoms of toxicity in humans, particularly in relation to the liver and kidney	–	–
C#CCN(Cc1ccc2nc(C)nc(O)c2c1)c1ccc(C(=O)NCCC)cc1 [p-[N-(3,4-dihydro-2-methyl-4-oxoquinazolin-6-ylmethyl)-N-(prop-2-ynyl)amino]-N-propylbenzamide]	–	–	1.8	7
